Source: patent US20100041089A1, “IMPROVED METHOD FOR DETECTING CHEMICAL […]” (priority 2006, published 2010)

Test system: yeast genes (expressed mRNA)
Assay: DNA chip measurement of expressed mRNA of yeast genes after culture with a toxic chemical substance
Format: cell-based, Saccharomyces cerevisiae S288C
How it was run: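 Each expression value is the mRNA level in chemical-treated yeast divided by that in untreated yeast, from Cy3/Cy5 fluorescence on a whole-genome chip. Log-phase S288C cells in YPD at 25° C had received a sublethal, growth-inhibiting dose for two hours. Intensity denotes control expression relative to the all-gene mean.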

COc1cc(CNC(=O)CCCCC=CC(C)C)ccc1O [(12), 8-Methyl-N-vanillyl-6-nonenamide]
The level of expressed mRNA in the presence of chemical substance/The level of expressed mRNA in the absence of chemical substance (yeast gene YFL024C, cultured two hours with substance): 0.8 | The level of expressed mRNA in the presence of chemical substance/The level of expressed mRNA in the absence of chemical substance (yeast gene YFL032W, cultured two hours with substance): 0.7 | The level of expressed mRNA in the presence of chemical substance/The level of expressed mRNA in the absence of chemical substance (yeast gene YGL001C): 0.9 | The level of expressed mRNA in the presence of chemical substance/The level of expressed mRNA in the absence of chemical substance (yeast gene YGL037C, cultured two hours with substance): 0.8 | The level of expressed mRNA in the presence of chemical substance/The level of expressed mRNA in the absence of chemical substance (yeast gene YGL047W, cultured two hours with substance): 1.1 | The level of expressed mRNA in the presence of chemical substance/The level of expressed mRNA in the absence of chemical substance (yeast gene YGL053W, cultured two hours with substance): 1.3 | The level of expressed mRNA in the presence of chemical substance/The level of expressed mRNA in the absence of chemical substance (yeast gene YGL062W, cultured for two hours with substance): 1.6 | The level of expressed mRNA in the presence of chemical substance/The level of expressed mRNA in the absence of chemical substance (yeast gene YGL104C): 1.1 | The level of expressed mRNA in the presence of chemical substance/The level of expressed mRNA in the absence of chemical substance (yeast gene YGL115W (stress protein genes)): 0.9 | The level of expressed mRNA in the presence of chemical substance/The level of expressed mRNA in the absence of chemical substance (yeast gene YGL117W, cultured two hours with substance): 1.5 | The level of expressed mRNA in the presence of chemical substance/The level of expressed mRNA in the absence of chemical substance (yeast gene YGL121C, cultured two hours with substance): 1.6 | The level of expressed mRNA in the presence of chemical substance/The level of expressed mRNA in the absence of chemical substance (yeast gene YGL136C, cultured two hours with substance): 1.1 | The level of expressed mRNA in the presence of chemical substance/The level of expressed mRNA in the absence of chemical substance (yeast gene YGL199C, cultured two hours with substance): 0.9 | The level of expressed mRNA in the presence of chemical substance/The level of expressed mRNA in the absence of chemical substance (yeast gene YGL209W): 1.3 | The level of expressed mRNA in the presence of chemical substance/The level of expressed mRNA in the absence of chemical substance (yeast gene YGR035C, cultured two hours with substance): 3.3 | The level of expressed mRNA in the presence of chemical substance/The level of expressed mRNA in the absence of chemical substance (yeast gene YGR055W, metabolism protein genes): 0.9 | The level of expressed mRNA in the presence of chemical substance/The level of expressed mRNA in the absence of chemical substance (yeast gene YGR101W, cultured two hours with substance): 1.0 | The level of expressed mRNA in the presence of chemical substance/The level of expressed mRNA in the absence of chemical substance (yeast gene YGR110W, cultured two hours with substance): 1.4 | The level of expressed mRNA in the presence of chemical substance/The level of expressed mRNA in the absence of chemical substance (yeast gene YGR130C, cultured two hours with substance): 0.7 | The level of expressed mRNA in the presence of chemical substance/The level of expressed mRNA in the absence of chemical substance (yeast gene YGR142W, cultured two hours with substance): 2.0 | The level of expressed mRNA in the presence of chemical substance/The level of expressed mRNA in the absence of chemical substance (yeast gene YGR146C, cultured two hours with substance): 1.4 | The level of expressed mRNA in the presence of chemical substance/The level of expressed mRNA in the absence of chemical substance (yeast gene YGR154C, cultured two hours with substance): 0.9 | The level of expressed mRNA in the presence of chemical substance/The level of expressed mRNA in the absence of chemical substance (yeast gene YGR221C, cultured two hours with substance): 1.6 | The level of expressed mRNA in the presence of chemical substance/The level of expressed mRNA in the absence of chemical substance (yeast gene YGR281W (transport facilitation protein gene)): 2.4 | The level of expressed mRNA in the presence of chemical substance/The level of expressed mRNA in the absence of chemical substance (yeast gene YGR282C): 1.3 | The level of expressed mRNA in the presence of chemical substance/The level of expressed mRNA in the absence of chemical substance (yeast gene YGR284C, cultured two hours with substance): 2.1 | The level of expressed mRNA in the presence of chemical substance/The level of expressed mRNA in the absence of chemical substance (yeast gene YHL038C, mitochondria-located protein gene, cultured two hours with substance): 1.6 | The level of expressed mRNA in the presence of chemical substance/The level of expressed mRNA in the absence of chemical substance (yeast gene YHL047C (transport facilitation protein gene)): 2.6 | The level of expressed mRNA in the presence of chemical substance/The level of expressed mRNA in the absence of chemical substance (yeast gene YHR029C, cultured two hours with substance): 1.5 | The level of expressed mRNA in the presence of chemical substance/The level of expressed mRNA in the absence of chemical substance (yeast gene YHR054C, cultured two hours with substance): 3.6 | The level of expressed mRNA in the presence of chemical substance/The level of expressed mRNA in the absence of chemical substance (yeast gene YHR111W, metabolism protein genes): 0.9 | The level of expressed mRNA in the presence of chemical substance/The level of expressed mRNA in the absence of chemical substance (yeast gene YHR138C, cultured two hours with substance): 1.8 | The level of expressed mRNA in the presence of chemical substance/The level of expressed mRNA in the absence of chemical substance (yeast gene YHR179W, cultured for two hours with substance): 2.2 | The level of expressed mRNA in the presence of chemical substance/The level of expressed mRNA in the absence of chemical substance (yeast gene YHR199C, cultured two hours with substance): 1.1 | The level of expressed mRNA in the presence of chemical substance/The level of expressed mRNA in the absence of chemical substance (yeast gene YHR209W, cultured two hours with substance): 1.0 | The level of expressed mRNA in the presence of chemical substance/The level of expressed mRNA in the absence of chemical substance (yeast gene YIL023C, cultured two hours with substance): 0.9 | The level of expressed mRNA in the presence of chemical substance/The level of expressed mRNA in the absence of chemical substance (yeast gene YIL024C, cultured two hours with substance): 0.7 | The level of expressed mRNA in the presence of chemical substance/The level of expressed mRNA in the absence of chemical substance (yeast gene YIL041W, cultured two hours with substance): 1.0 | The level of expressed mRNA in the presence of chemical substance/The level of expressed mRNA in the absence of chemical substance (yeast gene YIL077C, cultured two hours with the substance): 1.6 | The level of expressed mRNA in the presence of chemical substance/The level of expressed mRNA in the absence of chemical substance (yeast gene YIL087C, cultured two hours with substance): 1.1 | The level of expressed mRNA in the presence of chemical substance/The level of expressed mRNA in the absence of chemical substance (yeast gene YIL117C, cultured two hours with substance): 1.4 | The level of expressed mRNA in the presence of chemical substance/The level of expressed mRNA in the absence of chemical substance (yeast gene YIL154C): 1.1 | The level of expressed mRNA in the presence of chemical substance/The level of expressed mRNA in the absence of chemical substance (yeast gene YIL167W): 0.7 | The level of expressed mRNA in the presence of chemical substance/The level of expressed mRNA in the absence of chemical substance (yeast gene YJL020C, cultured two hours with substance): 0.7 | The level of expressed mRNA in the presence of chemical substance/The level of expressed mRNA in the absence of chemical substance (yeast gene YJL052W, cultured for two hours with substance): 2.4 | The level of expressed mRNA in the presence of chemical substance/The level of expressed mRNA in the absence of chemical substance (yeast gene YJL057C, cultured two hours with substance): 1.0 | The level of expressed mRNA in the presence of chemical substance/The level of expressed mRNA in the absence of chemical substance (yeast gene YJL066C, cultured two hours with substance): 1.0 | The level of expressed mRNA in the presence of chemical substance/The level of expressed mRNA in the absence of chemical substance (yeast gene YJL082W, cultured two hours with substance): 1.3 | The level of expressed mRNA in the presence of chemical substance/The level of expressed mRNA in the absence of chemical substance (yeast gene YJL108C, cultured two hours with substance): 0.4 | The level of expressed mRNA in the presence of chemical substance/The level of expressed mRNA in the absence of chemical substance (yeast gene YJL149W, cultured two hours with substance): 1.1
